Experimental data taken from PubChem BioAssay (NCI).
Where “and” joins values, the source holds several entries; their conditions need not be identical. Equal values may be shown once.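 Following 48 hours of exposure in 96-well plates, responses at five concentrations were used to interpolate endpoints linearly. Here, GI50 denotes the concentration required for 50% inhibition of growth. TGI: concentration producing complete growth inhibition.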

Legend:
Experiment in all cases: NCI anticancer screen, dose series, 48 h
[1] = system: SF-268 CNS
[2] = system: OVCAR-5 ovarian
[3] = system: SF-295 CNS
[4] = system: UACC-257 melanoma
[5] = system: HCC-2998 colon
[6] = system: HOP-92 NSCLC
[7] = system: MOLT-4 leukemia
[8] = system: SNB-19 CNS
[9] = system: SN12C renal
[10] = system: DU-145 prostate
[11] = system: IGROV1 ovarian
[12] = system: RXF 393 renal
[13] = system: TK-10 renal
[14] = system: MDA-MB-231 breast
[15] = system: SW-620 colon
[16] = system: T-47D breast
[17] = system: PC-3 prostate
[18] = system: HS 578T breast
[19] = system: SK-MEL-5 melanoma
[20] = system: LOX IMVI melanoma
[21] = system: OVCAR-3 ovarian
[22] = system: K-562 leukemia
[23] = system: CCRF-CEM leukemia
[24] = system: NCI-H23 lung
[25] = system: NCI-H226 lung
[26] = system: HOP-62 NSCLC
[27] = system: CAKI-1 renal
[28] = system: COLO 205 colon
[29] = system: SK-OV-3 ovarian
[30] = system: NCI-H460 lung
[31] = system: BT-549 breast
[32] = system: MDA-N
[33] = system: SK-MEL-2 melanoma
[34] = system: OVCAR-8 ovarian
[35] = system: OVCAR-4 ovarian
[36] = system: EKVX NSCLC
[37] = system: 786-0 renal
[38] = system: KM12 colon
[39] = system: U251 CNS
[40] = system: HT29 colon
[41] = system: MDA-MB-435
[42] = system: MCF7 breast
[43] = system: A498 renal
[44] = system: SF-539 CNS
[45] = system: A549 NSCLC
[46] = system: NCI-H522 lung
[47] = system: RPMI-8226 leukemia
[48] = system: HCT-116 colon
[49] = system: HL-60(TB) leukemia
[50] = system: ACHN renal
[51] = system: UO-31 renal
[52] = system: UACC-62 melanoma
[53] = system: HCT-15 colon
[54] = system: SNB-75 CNS
[55] = system: SK-MEL-28 melanoma
[56] = system: NCI/ADR-RES ovarian
[57] = system: M14 melanoma
[58] = system: MALME-3M melanoma
[59] = system: SR leukemia

SMILES: CCCNC1=C2CC(C)CC(OC)[C@@H](O)[C@H](C)/C=C(\C)C(OC(N)=O)C(OC)/C=C\C=C(/C)C(=O)NC(=CC1=O)C2=O (stereo partly specified)
- GI50 [1]: 0.134 µM
- TGI [1]: 27.1 µM
- GI50 [2]: 13.3 µM
- TGI [3]: 19.9 µM
- GI50 [4]: 0.318 µM
- TGI [4]: 36.4 µM
- GI50 [5]: 0.359 µM
- TGI [5]: 3.23 µM and 13.1 µM
- GI50 [6]: 16.8 µM
- GI50 [7]: 0.492 µM
- TGI [7]: 13.5 µM
- TGI [8]: > 100 µM
- GI50 [9]: 0.235 µM
- TGI [9]: 28.7 µM
- GI50 [10]: 14.8 µM
- TGI [10]: 65.5 µM
- TGI [11]: 41.6 µM
- GI50 [12]: 13.8 µM
- TGI [12]: 48.7 µM
- GI50 [13]: 11.6 µM
- TGI [13]: > 100 µM
- GI50 [14]: 3.36 µM
- TGI [14]: 7.47 µM
- GI50 [15]: 0.0606 µM
- TGI [15]: > 100 µM
- GI50 [16]: 1.15 µM
- TGI [16]: 35 µM
- GI50 [17]: 0.477 µM
- TGI [17]: > 100 µM
- GI50 [18]: 0.625 µM
- TGI [18]: 36.8 µM
- GI50 [19]: 0.0343 µM
- TGI [19]: 18.3 µM
- GI50 [20]: 0.0466 µM
- TGI [20]: 0.614 µM
- GI50 [21]: 0.613 µM
- TGI [21]: 28.8 µM
- TGI [22]: > 100 µM
- GI50 [23]: 0.309 µM
- TGI [23]: 3.13 µM
- GI50 [24]: 0.0639 µM
- TGI [24]: 23 µM
- GI50 [25]: 0.244 µM
- TGI [25]: 5.21 µM
- TGI [26]: 44.4 µM
- TGI [27]: > 100 µM
- GI50 [28]: 0.0141 µM
- TGI [28]: 12.7 µM
- GI50 [29]: 0.0747 µM
- TGI [29]: > 100 µM
- GI50 [30]: 0.0541 µM
- TGI [30]: 29.4 µM
- TGI [31]: 42.1 µM
- GI50 [32]: 0.0757 µM
- TGI [32]: 17.1 µM
- GI50 [33]: 13.1 µM
- TGI [33]: 31.4 µM
- GI50 [34]: 0.393 µM
- TGI [34]: 32.5 µM
- TGI [35]: > 100 µM
- GI50 [36]: 16 µM
- TGI [36]: 84.4 µM
- TGI [37]: > 100 µM
- GI50 [38]: 0.0239 µM
- TGI [38]: 0.673 µM and 0.727 µM
- GI50 [39]: 29.5 µM
- TGI [39]: > 100 µM
- TGI [40]: 10.9 µM
- GI50 [41]: 0.0903 µM
- TGI [41]: 28.8 µM
- GI50 [42]: 0.0525 µM
- TGI [42]: 28.5 µM
- TGI [43]: 9.55 µM
- GI50 [44]: 0.402 µM
- TGI [44]: 18.3 µM
- GI50 [45]: 0.514 µM
- TGI [45]: 27.9 µM
- GI50 [46]: 0.361 µM
- TGI [46]: 28.6 µM
- GI50 [47]: 0.463 µM
- TGI [47]: 42.2 µM
- GI50 [48]: 0.0589 µM
- TGI [48]: > 100 µM
- TGI [49]: 2.34 µM and 0.547 µM
- TGI [50]: 91.4 µM
- GI50 [51]: 0.558 µM
- TGI [51]: 32.2 µM
- GI50 [52]: 0.253 µM
- TGI [52]: 41.9 µM
- GI50 [53]: 0.46 µM
- TGI [53]: 28.1 µM

SMILES: CC1=CC2C(O1)C1C(=O)C=CC(=O)C1=CC2[N+](=O)[O-] (stereo unspecified)
- TGI [1]: 29.3 µM
- TGI [2]: 63.3 µM
- TGI [3]: 34.5 µM
- TGI [4]: 33.7 µM
- TGI [5]: > 59.7 µM
- TGI [54]: > 68.1 µM
- TGI [6]: 6.2 µM
- TGI [7]: > 24.3 µM
- TGI [8]: > 72.4 µM
- TGI [9]: 39.6 µM
- TGI [10]: > 55.9 µM
- TGI [11]: 44.7 µM
- TGI [12]: 28.2 µM
- TGI [13]: 30.6 µM
- TGI [14]: 38.9 µM
- TGI [15]: > 24.3 µM
- TGI [16]: > 29.2 µM
- TGI [17]: 37.9 µM
- TGI [18]: > 58 µM
- TGI [55]: 68.4 µM
- TGI [19]: 38.2 µM
- TGI [20]: > 52.3 µM
- TGI [21]: 30.7 µM
- TGI [22]: > 100 µM
- TGI [23]: > 23.7 µM
- TGI [24]: 48.3 µM
- TGI [25]: > 100 µM
- TGI [26]: 48.7 µM
- TGI [27]: 9.33 µM
- TGI [28]: 21.2 µM
- TGI [56]: > 77.9 µM
- TGI [29]: > 100 µM
- TGI [30]: 36.4 µM
- TGI [31]: 29.6 µM
- TGI [32]: 65.8 µM
- TGI [33]: 57.2 µM
- TGI [34]: 60.2 µM
- TGI [35]: 31.6 µM
- TGI [36]: 33.8 µM
- TGI [37]: 27.6 µM
- TGI [57]: 29.4 µM
- TGI [38]: > 55.9 µM
- TGI [39]: 36.3 µM
- TGI [40]: 45.7 µM
- TGI [41]: 26.4 µM
- TGI [42]: 14.3 µM
- TGI [43]: 40.6 µM
- TGI [44]: 96.5 µM
- TGI [45]: 43.5 µM
- TGI [47]: > 100 µM
- TGI [48]: 31.8 µM
- TGI [49]: > 22.5 µM
- TGI [50]: 12.8 µM
- TGI [51]: 10.4 µM
- TGI [52]: 36.2 µM
- TGI [53]: 39.6 µM

SMILES: CC12CCC(O)CC1CCC1C2CCC2(C)C(C3=CC(=O)OC3)CCC12O (stereo unspecified)
- TGI [1]: 7.07 µM
- TGI [2]: 16.9 µM
- TGI [3]: 10.8 µM
- TGI [4]: > 43.4 µM
- TGI [5]: 10.2 µM
- TGI [54]: 28.7 µM
- TGI [6]: > 41.9 µM
- TGI [7]: > 100 µM
- TGI [8]: 12.8 µM
- TGI [9]: 4.72 µM
- TGI [10]: 2.85 µM
- TGI [11]: 19.4 µM
- TGI [12]: 3.55 µM
- TGI [13]: > 35.4 µM
- TGI [14]: > 100 µM
- TGI [15]: > 36.8 µM
- TGI [16]: 14.7 µM
- TGI [17]: 13.1 µM
- TGI [18]: > 100 µM
- TGI [55]: 33.7 µM
- TGI [19]: 1.98 µM
- TGI [20]: 10.6 µM
- TGI [21]: 10.3 µM
- TGI [22]: > 90.5 µM
- TGI [23]: > 100 µM
- TGI [24]: 4.76 µM
- TGI [25]: 27.7 µM
- TGI [26]: 6.01 µM
- TGI [27]: > 19.8 µM
- TGI [28]: 12.2 µM
- TGI [56]: 5.77 µM
- TGI [29]: 18.5 µM
- TGI [30]: 3.99 µM
- TGI [31]: 4.53 µM
- TGI [32]: 6.38 µM
- TGI [33]: 22.7 µM
- TGI [34]: 10.1 µM
- TGI [35]: 5.39 µM
- TGI [36]: 5.88 µM
- TGI [37]: 4.78 µM
- TGI [58]: 4.89 µM
- TGI [57]: 19 µM
- TGI [38]: > 43.3 µM
- TGI [39]: 27.8 µM
- TGI [40]: 13.6 µM
- TGI [41]: 9.38 µM
- TGI [43]: 25.6 µM
- TGI [44]: 3.2 µM
- TGI [45]: 1.96 µM
- TGI [59]: > 100 µM
- TGI [46]: 4.9 µM
- TGI [47]: > 30 µM
- TGI [48]: 4.44 µM
- TGI [49]: 8.36 µM
- TGI [50]: 10.3 µM
- TGI [51]: 8.23 µM
- TGI [52]: 12.8 µM
- GI50 [53]: 2.39 µM
- TGI [53]: 5.75 µM
